Data as given in PMC8406319, “The dCache Chemoreceptor TlpA of Helicobacter pylori Binds Multiple Attractant and Antagonistic Ligands via Distinct Sites” (mBio, 2021).
Where a name gives a salt, the structure may show the parent alone. Read-outs that look alike come from different tables or passages of the source.

Legend:
TlpAD165A = biological target: T1, TlpAD165A (Helicobacter pylori, UniProt O24925, D165A); assay: biochemical
T1 sequence (O24925 28-299 D165A): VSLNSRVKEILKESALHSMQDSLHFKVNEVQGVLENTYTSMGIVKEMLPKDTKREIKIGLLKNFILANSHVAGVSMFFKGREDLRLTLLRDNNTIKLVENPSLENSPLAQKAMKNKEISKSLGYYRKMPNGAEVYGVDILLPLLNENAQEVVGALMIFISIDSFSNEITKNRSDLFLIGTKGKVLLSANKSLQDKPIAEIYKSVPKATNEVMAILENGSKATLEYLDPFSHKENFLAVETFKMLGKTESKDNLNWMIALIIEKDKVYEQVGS
Excerpt: (§1) The periplasmic portion of TlpA (TlpALBD), amino acids 28 to 299, from Helicobacter pylori SS1 was cloned into a pBH4 expression vector (pBH4_TlpALBD) to generate an N-terminal 6×His-tagged construct, with a tobacco etch virus (TEV) protease site, under the control of isopropyl-β-D-thiogalactopyranoside (IPTG) ([19]). […] TlpALBD and all point mutants were purified as described previously by Sweeney et al. ([19]).
(§2) Purified TlpALBD was immobilized on a CM5 series S sensor chip, and binding affinities were tested using a Biacore S200 instrument (GE Healthcare) as described previously ([39], [57], [59]). Briefly, proteins were captured using an amine-coupling kit (GE Healthcare), in which the carboxylmethyl dextran matrix of the sensor chip was activated by the injection of a mixture of 0.2 M 1-ethyl-3-[(3-dimethylamino)propyl]-carbodiimide (EDC) and 0.05 M N-hydroxysuccinimide (NHS), followed by the neutralization of the remaining unreacted NHS ester groups by the injection of 1 M ethanolamine-HCl (pH 8.0). Purified TlpALBD was diluted in 10 mM sodium acetate buffer (pH 4.5) at a concentration of 100 μg/ml for immobilization to the chip. A total of 8,400 response units (RU) of TlpALBD were captured on flow cell 2. As a negative control, flow cell 1 was a blank control undergoing the same treatment as the other flow paths, without the protein injection. This set enabled double-reference subtraction of the responses (2 − 1, 3 − 1, and 4 − 1). The tested compounds were prepared as a stock concentration of 100 to 200 mM in PBS. The compounds were then diluted between 1 nM and 1 mM in a series of 1:10 dilutions in PBS and run over the flow cells at a flow rate of 30 μl/min. Between each sample testing, a series of buffer-only injections was run to enable double-blank subtraction for the sensorgram assessment. […] The data sets were analyzed using Biacore S200 evaluation software 2.0.2; sensorgrams were double-reference subtracted.

TlpAY252A = biological target: T2, TlpAY252A (Helicobacter pylori, UniProt O24925, Y252A); assay: biochemical
T2 sequence (O24925 28-299 Y252A): T1 sequence (O24925 28-299 D165A)
Excerpt: as §1, §2

TlpAM183A = biological target: T3, TlpAM183A (Helicobacter pylori, UniProt O24925, M183A); assay: biochemical
T3 sequence (O24925 28-299 M183A): T1 sequence (O24925 28-299 D165A)
Excerpt: as §1, §2

TlpAD254A = biological target: T4, TlpAD254A (Helicobacter pylori, UniProt O24925, D254A); assay: biochemical
T4 sequence (O24925 28-299 D254A): T1 sequence (O24925 28-299 D165A)
Excerpt: as §1, §2

TlpAY228A = biological target: T5, TlpAY228A (Helicobacter pylori, UniProt O24925, Y228A); assay: biochemical
T5 sequence (O24925 28-299 Y228A): T1 sequence (O24925 28-299 D165A)
Excerpt: as §1, §2

TlpALBD (TlpAWT) = biological target: T6, TlpALBD (TlpAWT) (Helicobacter pylori, UniProt O24925); assay: biochemical; conditions: SPR
T6 sequence (O24925 28-299): T1 sequence (O24925 28-299 D165A)
Excerpt: as §1, §2

H. pylori PMSS1 WT = assay: Temporal chemotaxis assay (live-cell video microscopy, direction changes), WT; type: cell-based, Helicobacter pylori; conditions: for Chemotactic response (direction changes vs mock): WT, 0.1, 1, 10 mM tested, acidic ligand stocks pH neutralized with NaOH, 10 mM most significant; for Chemotactic response, ligand stock pH not adjusted: acidic in solution, unadjusted pH
Method: H. pylori chemotactic responses toward the seven putative TlpA-dependent ligands were examined by a live-cell video microscopy assay that measures the temporal chemotaxis response to test ligands. […] Acidic conditions are sensed by chemoreceptors other than TlpA ([24], [29], [31]) and potentially mask chemotactic responses to the ligands being tested.
Cultures of H. pylori PMSS1 WT and ΔtlpA strains were grown overnight, back-diluted, and then incubated until an OD600 of 0.12 to 0.15 was reached. Cultures were treated with water (Mock) or various concentrations of compounds, as indicated. […] The cells were immediately filmed, and direction changes were counted over a 3-s swimming period in at least 100 cells per treatment from 3 biological replicates. Data are normalized to the values for the untreated control for each strain, as described in Materials and Methods. Error bars represent the standard errors of the means. *, P < 0.05; **, P < 0.01; ***, P < 0.001 (comparisons to the untreated control per strain using two-way ANOVA with Dunnett’s multiple-comparison test).
Swimming behavior assays were done with H. pylori PMSS1 strains grown in BB10 as described above. Cultures grown overnight were diluted to an optical density at 600 nm (OD600) of 0.1 in fresh BB10 and then incubated with shaking as described above until an OD600 of 0.12 to 0.15 was reached. […] The number of direction changes in a bacterial swimming trajectory was enumerated over a 3-s interval to determine whether each putative ligand is sensed as an attractant or repellent or elicits no response ([20], [25][–][30]). […] Each control is sensed by chemoreceptors other than TlpA ([24], [25], [29], [31]). The pH of BB10 upon treatment was independently assessed using a Denver Instruments pH meter. […] Therefore, to be able to compare the results to those of previous experiments, we continued resuspending acidified ligands in pure water and then adjusting the pH of the resuspended ligand using NaOH. Cultures were filmed immediately after ligand addition at a ×400 magnification using a Hamamatsu C4742-95 digital camera with μManager software (version 1.4.22), mounted on a Nikon Eclipse E600 phase-contrast microscope. For the competition chemotaxis assay, cultures of H. pylori and ligands were prepared as described above. However, 1 min after the addition of a nonchemoactive ligand at a final concentration of 10 mM, a chemoactive ligand was added at a final concentration of 10 mM, and the cultures were then filmed as described above. Videos were relabeled to blind the observer to the strain identity. For each sample, >100 3-s-long bacterial tracks from three independent cultures were analyzed manually to identify stops followed by direction changes. Data for all biological replicates under each condition were combined, and the average number of direction changes in 3 s and the standard error of the mean were calculated. For each strain, data were normalized to the values for the untreated control under each experimental condition. Statistical analysis of the data for treated versus untreated samples was performed using two-way analysis of variance (ANOVA) and Dunnett’s multiple-comparison test.

[1] = Mean binding affinity ± SD, Table 1, n = 3
[2] = dissociation constant [Kd], WT TlpALBD

SMILES | Kd (TlpAD165A) [µM] | Kd (TlpAY252A) [µM] | Kd (TlpAM183A) [µM] | Kd (TlpAD254A) [µM] | Kd (TlpAY228A) [µM] | Kd (TlpALBD (TlpAWT); [1]) [µM] | Kd (TlpALBD (TlpAWT); [2]) [µM] | Chemotactic response (direction changes vs mock) (H. pylori PMSS1 WT) | Chemotactic response, ligand stock pH not adjusted (H. pylori PMSS1 WT) | Kd (TlpAY228A; read-out: Mean binding affinity ± SD, TlpAY228A, SPR, membrane-proximal mutant, n = 3) [µM] | Effect of TlpAD254A mutation on binding (TlpAD254A; membrane-proximal mutant vs WT)
N[C@@H](CS)C(=O)O [Cysteine, L-cysteine hydrochloride monohydrate] | 41.9 ± 0.4 | 5.5 ± 0.8 | 36.1 ± 15.7 | 4.58 ± 1.5 | 15.7 ± 6.6 | 4.7 ± 0.3 | < 10 | fewer direction changes | significant TlpA-independent chemorepellent responses | – | –
N=C(N)NCCC[C@H](N)C(=O)O [Arginine, L-arginine monohydrochloride] | 12.4 ± 0.84 | 4.96 ± 1.8 | 22.3 ± 5.9 | 3.71 ± 0.73 | 8.3 ± 1.6 | 2 ± 0.11 | < 10 | fewer direction changes | – | – | –
O=C(O)C[C@H](O)C(=O)O [Malic acid, L-malic acid] | 11.9 ± 4.3 | 14.2 ± 6.2 | 33.6 ± 6.2 | 29.3 ± 2 | 28.6 ± 9.4 | 46 ± 17 | > 45 | no significant direction changes | significant TlpA-independent chemorepellent responses | – | –
Cc1ncc(C[n+]2csc(CCO)c2C)c(N)n1 [Thiamine, thiamine hydrochloride] | 43.9 ± 14.1 | 35 ± 7.3 | 18.1 ± 1.2 | 39.3 ± 4.3 | 29.5 ± 12.3 | 60 ± 0.6 | > 45 | no significant direction changes | significant TlpA-independent chemorepellent responses | – | –
N[C@H]1C(O)O[C@H](CO)[C@@H](O)[C@@H]1O (stereo partly drawn) [Glucosamine, D(+)-glucosamine hydrochloride] | 96 ± 24.3 | 2.96 ± 0.7 | 94.6 ± 57.3 | 9.84 ± 3.7 | – | 10.5 ± 2.8 | < 10 | no significant direction changes | – | 17.1 | –
O=C(O)/C=C/C(=O)O [Fumarate, sodium fumarate] | 100 ± 38.9 | 8.5 ± 1.7 | 106 ± 36.6 | 44 ± 8.1 | 46.6 ± 3.9 | 10 ± 1.53 | < 10 | fewer direction changes | – | – | affected only fumarate binding
